Experimental data from paper PMC8856561, “Pharmacological and genetic activation of cAMP synthesis disrupts cholesterol utilization in Mycobacterium tuberculosis” (PLoS Pathogens, 2022).

How the values were obtained:
Mtb = assay: microbe, parasite or virus in culture; type: cell-based, Mycobacterium tuberculosis; conditions: for inhibition of ΔRv1625c mutant: ΔRv1625c strain, cholesterol media
Rv1625c = Rv1625c (Mycobacterium tuberculosis, UniProt P9WQ35); assay: cAMP production in cya- E. coli expressing Rv1625c; type: cell-based; conditions: cya- E. coli with Rv1625c expression plasmid, 18 hours
Chain of Rv1625c (P9WQ35 whole entry, looked up): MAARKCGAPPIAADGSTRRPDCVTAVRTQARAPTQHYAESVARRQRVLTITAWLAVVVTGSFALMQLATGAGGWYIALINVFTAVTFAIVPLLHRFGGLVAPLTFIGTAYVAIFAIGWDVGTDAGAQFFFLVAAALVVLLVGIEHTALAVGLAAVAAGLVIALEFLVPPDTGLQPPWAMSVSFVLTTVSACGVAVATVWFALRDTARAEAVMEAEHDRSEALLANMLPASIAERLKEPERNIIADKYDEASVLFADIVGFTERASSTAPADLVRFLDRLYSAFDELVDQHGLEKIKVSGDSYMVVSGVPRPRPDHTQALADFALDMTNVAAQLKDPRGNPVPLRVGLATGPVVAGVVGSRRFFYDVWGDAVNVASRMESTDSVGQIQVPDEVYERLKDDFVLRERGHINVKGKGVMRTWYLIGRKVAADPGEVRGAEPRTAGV

| Structure (SMILES) | susceptibility of 2xrv1625c (rv1625c overexpression) strain relative to WT (Mtb; 7H12+cholesterol media) | inhibition of ΔRv1625c mutant (Mtb) | cAMP levels (Rv1625c) |
| --- | --- | --- | --- |
| Cc1nonc1CC(=O)N1CCC(n2nnc(-c3ccc(F)cc3)n2)CC1 [V-59, 1-(4-(5-(4-fluorophenyl)-2H-tetrazol-2-yl)piperidin-1-yl)-2-(4-methyl-1,2,5-oxadiazol-3-yl)ethan-1-one] | ~ 15 fold | refractory | increased cAMP levels |
| Cn1ncnc1CC(=O)N1CCC(c2nc(-c3ccc(Cl)c(Cl)c3)no2)CC1 [mCLB073, 1-(4-(3-(3,4-dichlorophenyl)-1,2,4-oxadiazol-5-yl)-1-piperidinyl)-2-(2-methyl-2H-1,2,4-triazol-3-yl)-1-ethanone] |  | refractory |  |
